Measurements: patent publication US20070122849A1, “Rhesus monkey P2X7 purinergic receptor and uses thereof” (priority 2005, published 2007)

How the values were obtained:
rhP2X7 receptor [1] = experiment: rhP2X7 receptor activity in stably transfected HEK293 cells (calcium flux and change in membrane potential after agonist activation); type: cell-based, Macaca mulatta (Rhesus monkey); conditions: recombinant rhP2X7 receptor
Method: RhP2X7 receptor activity in the stably transfected HEK293 cells was monitored by measuring calcium flux and change in membrane potential subsequent to activation with potent agonists (ATP, Bz-ATP). The membrane potential was measured using the following protocol.
Stably transfected recombinant HEK293 cells were plated into the wells of a 384-well Costar plates (25 μL/well) in growth medium (DMEM without pyruvate (Invitrogen-11965-084) with 10% FBS (Invitrogen 10082-139), 100 U/ml P/S (Invitrogen 15140-148), and 100 ug/mL hygromycin (Roche, 843555) and the plates incubated for 24 hours at 37° C., 5% CO2. Then, 25 μL of membrane potential buffer (Blue dye, Molecular Devices, Sunnyvale, Calif.) was added to the medium and the cells incubated for 30 minutes at 37° C., 5% CO2. Next, about 30 to 100 nL of either analyte or antagonist control or 10 μL agonist 3′-O-(4-benzoylbenzoyl)-ATP (Bz-ATP) (at an EC80) was added to the medium in separate wells of the plates. After incubating the plates for 30 minutes at 37° C., 5% CO2, fluorescence was read using a fluorometric plate reader (FLIPR, Molecular Devices). Data were analyzed using the formula EC50=using (Max−Min); Signal to Noise Ratio (S/B)=Max/Min; Z′ Factor=1−[3*SD of Max)+(3*SD of Min)/(mean of Max−mean of Min).
Calcium flux was measured using the following FLIPR Calcium Flux Assay protocol (Molecular Devices, Sunnyvale, Calif.). […]

rhP2X7 receptor [2] = experiment: calcium flux protocol for high throughput screen using cells that express the rhP2X7 receptor; type: cell-based, Macaca mulatta (Rhesus monkey); conditions: agonist used in the example screening protocol; source of the value not stated
Method: The following is an example of a calcium flux protocol that can be used in a high throughput screen using cells that express the rhP2X7 receptor. The cells are grown to about 75-85% confluence, rinsed with DPBS (5.33 mM KCl, 0.44 mM KH2PO4, 0.3 mM Na2HPO4, 4 mM NaHCO3, 0.1% Glucose, 138 mM N-methyl glucamine), and dissociated with 0.05% trypsin. Then, about 20,000 cells are plated into multiple of the wells of multiwell plates in complete growth medium. The cells are incubated at 37° C. and 5% CO2 for about 20 to 24 hours. Next, about 20 μL FLUO-4 loading buffer (Invitrogen) is added to each of the wells and the cells incubated at RT for 60 minutes. Then, about 10 μL aliquots of each analyte to be tested (final concentration in DMSO about 0.1%) diluted in TR-40 quenching solution (Sigma #T2397) is added to a well containing cells. Controls include antagonists such as KN-62 and Ox-ATP and agonists such as Bz-ATP (at an EC80). The cells are incubated for about 10 minutes at RT.

Structure (SMILES) | EC50 (rhP2X7 receptor [1]) [µM] | EC50 (rhP2X7 receptor [2]) [µM]
Nc1ncnc2c1ncn2[C@@H]1O[C@H](COP(=O)(O)OP(=O)(O)OP(=O)(O)O)[C@@H](OC(=O)c2ccc(C(=O)c3ccccc3)cc2)[C@H]1O [Bz-ATP, 3′-O-(4-benzoylbenzoyl)-ATP] | ~150 | 
Nc1ncnc2c1ncn2[C@@H]1O[C@H](COP(=O)(O)OP(=O)(O)OP(=O)(O)O)[C@@H](O)[C@H]1O [ATP] | ~3000 | 
Nc1ncnc2c1ncn2[C@@H]1O[C@H](COP(=O)(O)CP(=O)(O)OP(=O)(O)O)[C@@H](O)[C@H]1O [a,b-methylene ATP] |  | 350
